In PMC9579956 (RSC Medicinal Chemistry, 2022):
Several values for one entry are separate records, joined by “and”; a condition that tells them apart may be missing. Equal entries are not always repeated. Where two headings read alike, the source gives them in different places.

Assays:
[1] = target: T1, Mycobacterium thermoresistible (Mtr) LpqY (Mycolicibacterium thermoresistibile, UniProt G7CES0); format: binding; conditions: for Screen signal/noise ratio (MST S/N): compound 100 μM, LpqY 500 nM, 10% DMSO, duplicate; for Pathogen Box screen signal/noise ratio: single dose MST screen against LpqY
[2] = target: T1, Mycobacterium thermoresistible (Mtr) LpqY; format: binding; conditions: for Hit validation Binding score: MST re-evaluation of hits against LpqY; for Validation binding score (MST): quadruplicate, new batch of LpqY
[3] = target: T1, Mycobacterium thermoresistible (Mtr) LpqY; assay: Affinity studies with microscale thermophoresis (MST); format: binding; conditions: for Binding to LpqY (qualitative): Kd could not be determined
[4] = Solubility in aqueous buffer (observation in MST affinity assay); format: physicochemical
Text: The top five hits that were commercially available were selected for further characterisation and the binding affinities determined with LpqY (Fig. 4, Table S2 ^†).

T1 sequence (G7CES0 29-471): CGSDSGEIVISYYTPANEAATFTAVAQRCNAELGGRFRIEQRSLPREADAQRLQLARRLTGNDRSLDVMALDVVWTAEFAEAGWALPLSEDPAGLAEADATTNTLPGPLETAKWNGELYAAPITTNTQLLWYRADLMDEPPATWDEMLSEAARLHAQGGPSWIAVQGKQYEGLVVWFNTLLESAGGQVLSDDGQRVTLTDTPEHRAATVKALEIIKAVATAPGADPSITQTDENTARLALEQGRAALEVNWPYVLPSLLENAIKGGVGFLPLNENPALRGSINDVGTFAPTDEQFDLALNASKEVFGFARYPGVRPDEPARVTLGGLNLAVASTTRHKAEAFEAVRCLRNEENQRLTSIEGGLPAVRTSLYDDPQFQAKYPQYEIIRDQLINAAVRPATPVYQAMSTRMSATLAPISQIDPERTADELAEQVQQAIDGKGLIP

Row | SMILES | Screen signal/noise ratio (MST S/N) [1] | Pathogen Box screen signal/noise ratio [1] | Hit validation Binding score [2] | Validation binding score (MST) [2] | further results
1 | Nc1cccnc1Nc1ccc(Cl)cc1 [MMV676524, 2-N-(4-chlorophenyl)pyridine-2,3-diamine] | 6.4 | 6.4 | 12.2 | – | Binding to LpqY (qualitative) ([3]; MST): Concentration dependent binding; Solubility in aqueous buffer [4]: poor solubility
2 | CNC(=O)c1nn(C)c2c1C(C)(C)Cc1cnc(Nc3ccc(N4CCN(C)CC4)cc3)nc1-2 [MMV676602, Milciclib, reference compound] | 9.5 | 9.5 | 13.6 | > 12 | Binding to LpqY (qualitative) ([3]; MST): Concentration dependent binding; Solubility in aqueous buffer [4]: poor solubility
3 | COc1cc(NC(C)CCCN)c2ncccc2c1 (stereo not shown) [MMV000023, Primaquine, reference compound] | 10.0 | 10.0 | 21.6 | 21.6 | Binding to LpqY (qualitative) ([3]; MST): Concentration dependent binding
4 | O=C(Nc1cccc(Cl)c1)c1cnc(N2CCN(c3ccncc3)CC2)c(Cl)c1 [MMV024406, 5-chloro-N-(3-chlorophenyl)-6-(4-pyridin-4-ylpiperazin-1-yl)pyridine-3-carboxamide] | 5.2 | 5.2 | 2.3 | 2.3 | –
5 | CC(=O)Oc1ccccc1C(=O)Nc1ncc([N+](=O)[O-])s1 [MMV688991, Nitazoxanide, reference compound] | 8.3 | 8.3 | 20.0 | – | Kd [3]: 85.4 µM; fold decrease in affinity compared to trehalose ([3]; MST): ~2 fold
6 | COc1ccc(N(CCc2cccc(C)n2)C(=O)C2CCCCC2)cc1 [MMV675996, N-(4-methoxyphenyl)-N-[2-(6-methylpyridin-2-yl)ethyl]cyclohexanecarboxamide] | 6.0 | 6.0 | 4.9 | 4.9 | –
7 | OC[C@H]1O[C@H](O[C@H]2O[C@H](CO)[C@@H](O)[C@H](O)[C@H]2O)[C@H](O)[C@@H](O)[C@@H]1O [Trehalose, α-D-glucopyranosyl-α-D-glucopyranoside, reference compound] | – | – | 8.3 | 8.3 | –
8 | C[C@H]1c2cccc(O)c2C(=O)C2=C(O)[C@]3(O)C(=O)C(C(N)=O)=C(O)[C@@H](N(C)C)[C@@H]3[C@@H](O)[C@@H]21 [MMV000011, Doxycycline, reference compound] | 5.8 | 5.8 | 6.5 | 6.5 | Validation binding score (MST) ([2]; listed as doxycycline): > 5
9 | COc1ccc(OC(C)C(=O)Nc2ccc(Cl)cc2C)cc1 (stereo not shown) [MMV202458, N-(4-chloro-2-methylphenyl)-2-(4-methoxyphenoxy)propanamide] | 5.5 | 5.5 | 6.3 | 6.3 and > 5 | –
10 | CC1(C)OB(O)c2ccc(C3=NOC(c4cc(Cl)c(F)c(Cl)c4)(C(F)(F)F)C3)cc21 (stereo not shown) [MMV687775, 5-(3,5-dichloro-4-fluorophenyl)-3-(1-hydroxy-3,3-dimethyl-2,1-benzoxaborol-5-yl)-5-(trifluoromethyl)-4H-1,2-oxazole] | 6.6 | 6.6 | 3.9 | 3.9 | –
11 | COc1ccccc1OCCCCn1c(C2CC2)nc2ccccc21 [MMV676474, 2-cyclopropyl-1-[4-(2-methoxyphenoxy)butyl]benzimidazole] | 6.0 | 6.0 | 6.2 | 6.2 and > 5 | –
12 | O=C(NCCc1c[nH]c2ccccc12)c1cc2ccccc2oc1=O [MMV676539, N-[2-(1H-indol-3-yl)ethyl]-2-oxochromene-3-carboxamide] | 6.2 | 6.2 | 6.4 | 6.4 and > 5 | –
13 | COc1ccccc1C(C)NCC(=O)Nc1cc(C(F)(F)F)ccc1Cl (stereo not shown) [MMV020321, N-[2-chloro-5-(trifluoromethyl)phenyl]-2-[1-(2-methoxyphenyl)ethylamino]acetamide] | 5.5 | 5.5 | 1.9 | 1.9 | –
14 | CNC(=O)C1Cc2c([nH]c3cc(Cl)ccc23)C2(CCN(CCc3ccccc3)CC2)N1 (stereo not shown) [MMV031011, 7-chloro-N-methyl-1'-(2-phenylethyl)spiro[2,3,4,9-tetrahydropyrido[3,4-b]indole-1,4'-piperidine]-3-carboxamide] | 5.7 | 5.7 | 3.7 | 3.7 | –
15 | CS(=O)(=O)c1ccccc1C(=O)N(Cc1ccccc1)c1ccccc1 [MMV688798, N-benzyl-2-methylsulfonyl-N-phenylbenzamide] | 5.2 | 5.2 | 1.3 | 1.3 | –
16 | CCOC(=O)NC(=O)c1ccsc1NC(=O)c1nc2ccccc2s1 [MMV090930, TCA1, reference compound] | 29.5 | 29.5 | 91.5 | > 5 | Kd [3]: 14.2 ± 0.8 µM; fold increase of affinity (Kd) compared to trehalose ([3]; MST): ~2.5 fold
17 | COc1cc(C2=NCCN2)cc2cc(-c3ccc(C4=NCCN4)cc3)oc12 [MMV688362, 2-[4-[5-(4,5-dihydro-1H-imidazol-2-yl)-7-methoxy-1-benzofuran-2-yl]phenyl]-4,5-dihydro-1H-imidazole] | 12.6 | 12.6 | 14.8 | – | –
18 | CC1=Nc2ccc(Cl)cc2C(O)(c2ccc(C)cc2)N1CCN1CCCCC1 (stereo not shown) [MMV688279] | – | 0.8 | – | – | –
19 | CC(C)(C)OC(=O)N1CCN(c2nccc(-c3ccc(-c4ccc(Cl)cc4)s3)n2)CC1 [MMV688416] | – | 0.333 | – | – | –
20 | CC(=O)NCC1CN(c2ccc(-c3ccc(CNCc4cn[nH]n4)cc3)c(F)c2)C(=O)O1 (stereo not shown) [MMV688327] | – | 0.344 | – | – | –
21 | Cc1cnc(N2CCN[C@@H](Cc3ccccc3)C2)nc1Oc1ccc(-n2ccnc2)cc1 [MMV687765] | – | 2.2 | – | – | –
22 | CCCc1ccc(S(=O)(=O)Nc2ccc(CN3CCN(CC4CC4)CC3)cc2)cc1 [MMV688125] | – | 0.6 | – | – | –
23 | COc1ccc(-c2nc(-c3cccc(NC(=O)Cc4ccc(F)cc4)c3)no2)cc1OC [MMV676571] | – | 3.5 | – | – | –
24 | Nc1ncc(-c2ccc(C(F)(F)F)nc2)cc1-c1ccc(C(F)(F)F)nc1 [MMV668727] | – | 2.0 | – | – | –
25 | Nc1nc(N)c2c3c(sc2n1)CN(Cc1ccccc1)CC3 [MMV688345] | – | 2.8 | – | – | –
26 | CCOc1ccc2cc(-c3nn(C(C)(C)C)c(N)c3C(N)=O)cnc2c1 [MMV688853] | – | 3.8 | – | – | –
